Data on three molecules can be found in patent US9255272B2, “Use of inhibitors of leukotriene B4 receptor BLT2 for treating asthma” (Korea University Research & Business Foundation, priority 2007, dated 2016).

Holding throughout (type): in vivo, mouse
In data set [1] the test system is Rac. The experiment in a line: Endogenous Rac expression in lung tissue (Western blot). Particulars: oligonucleotides injected into tail veins, mice sacrificed after 12 hr. The source says: FIGS. 10a and 10b show activation of Rac in the lung tissue by OVA provocation and inhibition of endogenous Rac expression by antisense Rac oligonucleotide treatment. Lung samples were homogenized with micropestle and washed with PBS twice. FIG. 10a depicts Western blot analysis of Rac expression in mouse model of asthma. For membrane protein preparation, cells were suspended in Buffer A and cells were ruptured by passing through 21-G syringe. After ultracentrifugation, protein samples in pelleted membrane fraction were dissolved with buffer A containing 1% Triton X-100. FIG. 10b depicts Western blot analysis of Rac expression in mouse model of asthma administered with asRac. For whole cell lysate preparation, cells from the lung tissues of buffer, control Rac oligonucleotide or antisense Rac oligonucleotide injected mice were suspended with lysis buffer and incubated for 20 min. After centrifugation of the samples, protein quantification was carried out using Bradford reagent and Western blot analysis was performed.
Oligonucleotides, from Genotech Co. (Korea), were synthesized with a phosphorothioate backbone to improve the resistance to endonuclease. The antisense oligonucleotide consisted of 17 nucleotides analogues to the 5′ end of the murine Rac mRNA sequence, which spans the translation initiation site. […]

Data set [2] relates to BLT2 mRNA. The experiment in a line: BLT2 mRNA level in lung of OVA-challenged mice (semiquantitative RT-PCR, real-time PCR). As for the experimental part:
Female BALB/c mice and C57BL/6 mice (7 weeks old; 18-20 g) were obtained from Orientbion Inc. (Seoungnam, Korea). Sensitization and challenge were carried out as described previously with some modification (28). Briefly, female C57BL/6 mice (7 weeks old; 18-20 g) were immunized by intraperitoneal (i.p.) injection of 200 μg ovalbumin (OVA) emulsified in 2.5 mg of adjuvant aluminum hydroperoxide gel (alum) (Pierce, Rockford, Ill.). A second i.p. injection of 20 μg OVA adsorbed onto alum (2.5 mg) was administered 10 days later. After an additional 10 days, mice were exposed to an aerosol of 1% OVA in saline for 30 min daily on 3 consecutive days. On day 25, mice were finally challenged by provocation with 10% OVA aerosol. […]
(§1) Total RNA was extracted from lung samples using Easy-blue RNA extraction reagent (Intron, Korea). […] For the semiquantitative analysis of transcripts, the optimal PCR conditions were first determined by linear amplification of glyceraldehyde-3-phosphate dehydrogenase (GAPDH). […]
as §1
In general terms: Real-time PCR tracks product formation cycle by cycle.

Data set [3] concerns BLT1 mRNA. Briefly: BLT1 mRNA level in lung of OVA-challenged mice (semiquantitative RT-PCR). Particulars: C57BL/6 mice, 1.6 mg/kg i.v. 24 hr and 1 hr before 10% OVA challenge. As for the experimental part:
Female BALB/c mice and C57BL/6 mice (7 weeks old; 18-20 g) were obtained from Orientbion Inc. (Seoungnam, Korea). Sensitization and challenge were carried out as described previously with some modification (28). Briefly, female C57BL/6 mice (7 weeks old; 18-20 g) were immunized by intraperitoneal (i.p.) injection of 200 μg ovalbumin (OVA) emulsified in 2.5 mg of adjuvant aluminum hydroperoxide gel (alum) (Pierce, Rockford, Ill.). A second i.p. injection of 20 μg OVA adsorbed onto alum (2.5 mg) was administered 10 days later. After an additional 10 days, mice were exposed to an aerosol of 1% OVA in saline for 30 min daily on 3 consecutive days. On day 25, mice were finally challenged by provocation with 10% OVA aerosol. For inhibition experiments, sense or antisense BLT2 (1.6 mg/kg) was injected intravenously 24 h and then 1 h before the 10% OVA challenge. The mice were then killed on day 27 to assess asthmatic phenotypes. Antisense BLT2 oligonucleotide (5′-[…]-3′ (SEQ ID NO: 15)), sense BLT2 oligonucleotide (5′-[…]-3′ (SEQ ID NO: 16)).
as §1

Consider “antisense Rac: phosphorothioate 17-mer to the 5′ end of murine Rac mRNA, 5′-CACTTGATGGCCTGCAT-3′ (SEQ ID NO: 22) (listed as DNA, chemistry not fully specified)”, for which, in data set [1], the “endogenous expression of Rac in the lung tissues” value is “inhibited”. With `CCc1cc(C(C)=O)c(O)cc1OCCCCCC(C)(C)c1nnn[nH]1` [LY255283, 1-[5-ethyl-2-hydroxy-4-[[6-methyl-6-(1H-tetrazol-5-yl)heptyl]oxy]phenyl]-ethanone, reference compound], the “level of BLT2 mRNA in the lung” value in data set [2] (BALB/c mice, LY255283 2.5 mg/kg i.v. 1 hr before 1% OVA challenge, 48 h after challenge) was “significantly reduced”. Turning to “antisense BLT2: Antisense BLT2 oligonucleotide 5′-GCTCAGTAGTGTCTCATTCC-3′ (SEQ ID NO: 15) (listed as DNA, chemistry not fully specified)”, the “BLT1 expression in the lung (mRNA)” value in data set [3] is recorded as “without interfering”. Further, the “BLT2 expression in the lung (mRNA)” value in data set [2] (C57BL/6 mice, 1.6 mg/kg i.v. 24 hr and 1 hr before 10% OVA challenge, 48 hr after challenge) is “reduced”.
